Experimental findings from paper PMC4843824 (Nature chemistry, 2016) are described below.

Holding throughout (test): differential UV-vis titration
Test [1] concerns the target T1, TxtE (Streptomyces scabiei, UniProt C9ZDC6, H176W).
T1 sequence (C9ZDC6 1-406 H176W): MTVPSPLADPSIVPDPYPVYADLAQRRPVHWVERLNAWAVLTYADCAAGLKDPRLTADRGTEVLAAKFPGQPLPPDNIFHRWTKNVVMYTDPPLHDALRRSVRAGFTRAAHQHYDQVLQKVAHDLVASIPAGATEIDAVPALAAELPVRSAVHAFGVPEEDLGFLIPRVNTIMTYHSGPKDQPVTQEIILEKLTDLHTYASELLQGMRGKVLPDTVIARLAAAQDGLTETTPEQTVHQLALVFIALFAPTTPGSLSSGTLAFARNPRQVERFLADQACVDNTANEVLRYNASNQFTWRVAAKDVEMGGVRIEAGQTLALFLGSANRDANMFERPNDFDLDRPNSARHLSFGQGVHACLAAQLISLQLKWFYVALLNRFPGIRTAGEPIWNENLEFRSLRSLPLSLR
The test is classed as binding.

In test [2] the target is Virginiae_TxtE. The test is classed as binding, Streptomyces virginiae. The note with it: read-out: Kd (μM)^b; 25 mM Tris pH 8.
Test [3] has as its target T2, TxtE (Streptomyces scabiei, UniProt C9ZDC6, H176F).
T2 sequence (C9ZDC6 1-406 H176F): T1 sequence (C9ZDC6 1-406 H176W)
It is filed as binding.

Test [4] deals with T3, TxtE (Streptomyces scabiei, UniProt C9ZDC6, H176Y).
T3 sequence (C9ZDC6 1-406 H176Y): T1 sequence (C9ZDC6 1-406 H176W)
It is filed as binding.

For `N[C@@H](Cc1c[nH]c2ccccc12)C(=O)O` [L-tryptophan], the Kd in test [1] worked out at 1.3 ± 0.1 µM; in test [2], 140 ± 6 µM; in test [3], 2.6 ± 0.1 µM; in test [4], 4.9 ± 0.3 µM.

A word on the Kd: it is the concentration at which binding is half-saturated.
